Measured values published in PMC8301156, “Phenolic Extracts from Extra Virgin Olive Oils Inhibit Dipeptidyl Peptidase IV Activity: In Vitro, Cellular, and In Silico Molecular Modeling Investigations” (Antioxidants, 2021).

System: DPP-IV
Assay: not given
Settings: cited from earlier work
In the case of `O=c1cc(-c2ccc(O)cc2)oc2cc(O)cc(O)c12` [apigenin], the “mode of DPP-IV inhibition” value is given as “noncompetitive”. For `O.Oc1cc(O)c2c(c1)O[C@H](c1ccc(O)c(O)c1)[C@@H](O)C2` [catechin], the “activity against DPP-IV (in words)” value is given as “totally inactive”. For `O=C(/C=C/c1ccc(O)c(O)c1)O[C@@H]1C[C@](O)(C(=O)O)C[C@@H](O)[C@H]1O` [chlorogenic acid], the “activity against DPP-IV (in words)” value is listed as “totally inactive”. In the case of `COc1cc(/C=C/C(=O)CC(=O)/C=C/c2ccc(O)c(OC)c2)ccc1O` [curcumin], the “activity against DPP-IV (in words)” value is listed as “more active than resveratrol” and the “mode of DPP-IV inhibition” value is listed as “competitive”. For `Oc1cc(O)c2c(c1)O[C@H](c1ccc(O)c(O)c1)[C@H](O)C2` [epicatechin], the “activity against DPP-IV (in words)” value is listed as “totally inactive”. For `O=c1c(-c2ccc(O)cc2)coc2cc(O[C@@H]3O[C@H](CO)[C@@H](O)[C@H](O)[C@H]3O)cc(O)c12` [genistin], the “activity against DPP-IV (in words)” value is listed as “totally inactive”. In the case of `COc1ccc([C@@H]2CC(=O)c3c(O)cc(O[C@@H]4O[C@H](CO[C@@H]5O[C@@H](C)[C@H](O)[C@@H](O)[C@H]5O)[C@@H](O)[C@H](O)[C@H]4O)cc3O2)cc1O` [hesperidin], the “activity against DPP-IV (in words)” value is given as “totally inactive”. In the case of `CC1(C)O[C@H]2CC(=O)OC[C@]23[C@H]2CC[C@@]4(C)[C@H](c5ccoc5)OC(=O)[C@H]5O[C@]54[C@]2(C)C(=O)C[C@@H]13` [limonin], the “activity against DPP-IV (in words)” value is given as “totally inactive”. For `O=c1cc(-c2ccc(O)c(O)c2)oc2cc(O)cc(O)c12` [luteolin], the “mode of DPP-IV inhibition” value is listed as “noncompetitive”. For `C[C@@H]1O[C@@H](O[C@H]2[C@H](Oc3cc(O)c4c(c3)O[C@H](c3ccc(O)cc3)CC4=O)O[C@H](CO)[C@@H](O)[C@@H]2O)[C@H](O)[C@H](O)[C@H]1O` [naringin], the “activity against DPP-IV (in words)” value is listed as “totally inactive”. In the case of `C[C@@H]1O[C@@H](OC[C@H]2O[C@@H](Oc3cc(O)c4c(c3)O[C@H](c3ccc(O)cc3)CC4=O)[C@H](O)[C@@H](O)[C@@H]2O)[C@H](O)[C@H](O)[C@H]1O` [narirutin], the “activity against DPP-IV (in words)” value is given as “totally inactive”. In the case of `COc1ccc([C@@H]2CC(=O)c3c(O)cc(O[C@@H]4O[C@H](CO)[C@@H](O)[C@H](O)[C@H]4O[C@@H]4O[C@@H](C)[C@H](O)[C@@H](O)[C@H]4O)cc3O2)cc1O` [neohesperidin], the “activity against DPP-IV (in words)” value is listed as “totally inactive”. In the case of `O=C(O)c1ccc(O)c(O)c1` [protocatechuic acid], the “activity against DPP-IV (in words)” value is given as “totally inactive”. In the case of `Oc1ccc(/C=C/c2cc(O)cc(O)c2)cc1` [resveratrol], the “mode of DPP-IV inhibition” value is listed as “competitive”. In the case of `C[C@@H]1O[C@@H](OC[C@H]2O[C@@H](Oc3c(-c4ccc(O)c(O)c4)oc4cc(O)cc(O)c4c3=O)[C@H](O)[C@@H](O)[C@@H]2O)[C@H](O)[C@H](O)[C@H]1O` [rutin], the “activity against DPP-IV (in words)” value is listed as “totally inactive”.

Same assay, conditions: read-out: IC50, in vitro DPP-IV activity; cited from earlier work
In the case of `C[C@@H]1O[C@@H](OC[C@H]2O[C@@H](Oc3cc(O)c4c(c3)O[C@H](c3ccc(O)c(O)c3)CC4=O)[C@H](O)[C@@H](O)[C@@H]2O)[C@H](O)[C@H](O)[C@H]1O` [eriocitrin], the IC50 is listed as 10.36 ± 0.09 µM. For `Oc1ccc(/C=C/c2cc(O)cc(O)c2)cc1` [resveratrol], the IC50 is given as 0.0006 ± 0.0004 µM.

Molecular target: T1, purified human recombinant DPP-IV enzyme (Homo sapiens, UniProt P27487)
T1 construct: purchased Cayman Chemicals
T1 sequence (P27487 whole entry): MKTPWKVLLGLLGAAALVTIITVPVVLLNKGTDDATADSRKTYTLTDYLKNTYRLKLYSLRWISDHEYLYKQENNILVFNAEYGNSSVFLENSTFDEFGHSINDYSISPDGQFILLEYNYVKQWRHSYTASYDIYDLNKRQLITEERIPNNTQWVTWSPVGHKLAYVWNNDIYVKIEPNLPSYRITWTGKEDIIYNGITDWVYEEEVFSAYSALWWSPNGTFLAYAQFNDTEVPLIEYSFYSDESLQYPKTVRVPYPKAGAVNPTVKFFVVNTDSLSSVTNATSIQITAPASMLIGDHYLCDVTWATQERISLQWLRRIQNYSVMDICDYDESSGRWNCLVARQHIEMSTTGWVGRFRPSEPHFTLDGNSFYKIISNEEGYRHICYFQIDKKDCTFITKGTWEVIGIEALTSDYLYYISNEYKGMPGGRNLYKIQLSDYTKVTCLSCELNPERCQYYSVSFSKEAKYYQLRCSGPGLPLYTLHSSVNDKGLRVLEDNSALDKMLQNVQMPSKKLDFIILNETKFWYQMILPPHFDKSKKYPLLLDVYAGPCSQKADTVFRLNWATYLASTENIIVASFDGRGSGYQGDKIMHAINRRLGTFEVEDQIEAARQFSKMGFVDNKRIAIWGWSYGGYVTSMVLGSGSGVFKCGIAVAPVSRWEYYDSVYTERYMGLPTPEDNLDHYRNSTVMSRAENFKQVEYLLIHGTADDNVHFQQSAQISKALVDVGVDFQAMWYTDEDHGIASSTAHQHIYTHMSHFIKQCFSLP
Assay: In vitro DPP-IV activity assay (Gly-Pro-AMC fluorescence)
Assay type: biochemical
Settings: tested 1–1000 µM
Method: The DPP-IV enzyme was provided by Cayman Chemicals (Ann Arbor, MI, USA), while the DPP-IV substrate (Gly-Pro-amido-4-methylcoumarin hydrobromide (Gly-Pro-AMC)) was from AnaSpec Inc. (Freemont, CA, USA). The experiments were carried out in triplicate in a half-volume 96-well solid plate (white) following conditions previously optimized. More details are available in the Supplementary Material.
To evaluate the DPP-IV inhibitory activity of both BUO and OMN, in vitro experiments were performed by using the purified human recombinant DPP-IV enzyme and H-Gly-Pro-AMC as a substrate. The reaction was monitored by measuring the fluorescence signals at 465 nm after excitation at 350 nm, deriving from the release of a free AMC group after the cleavage of H-Gly-Pro-AMC catalyzed by DPP-IV. […]
Tris-HCl, ethylendiaminetetraacetic acid (EDTA) and NaCl were from Sigma-Aldrich (St. Louis, MO, USA) The DPP-IV assay kit was from (Cayman Chemicals (Michigan, USA), while Gly- Pro-amido-4-methylcoumarin hydrobromide (Gly- Pro-AMC) was from AnaSpec (Freemont, CA, USA). […]
MA, USA). Tyrosol (≥98%), hydroxytyrosol (≥98%), and oleocanthal (≥95%) were from Merck Life Science S.r.l. (Milano, Italy); oleuropein (≥98%) was from Extrasynthese (Genay, France), whereas oleacin was from Phytolab
(Vestenbergsgreuth, Germany).
2.3. In Vitro DPP-IV Activity Assay
The DPP-IV enzyme was provided by Cayman Chemicals (Michigan, USA), while the DPP-IV substrate (H-Gly-Pro-AMC) was from AnaSpec Inc.
(Freemont, CA, USA). The experiments were carried out in triplicate in a half volume 96-well solid plate (white). […]
Subsequently, the samples were mixed and 50 μL of each reaction was transferred in each plate well. […] Fluorescence signals deriving from the release of free AMC were measured using a Synergy H1 fluorescence plate reader from BioTek (excitation/emission wavelength
With `OCCc1ccc(O)c(O)c1` [hydroxytyrosol] the IC50 was 742 ± 35.7 µM. With `C/C=C1/[C@H](O[C@@H]2O[C@H](CO)[C@@H](O)[C@H](O)[C@H]2O)OC=C(C(=O)OC)[C@H]1CC(=O)OCCc1ccc(O)c(O)c1` [oleuropein] the IC50 was 472 ± 21.7 µM. `OCCc1ccc(O)cc1` [tyrosol] gave an IC50 of 1110 ± 55.6 µM.
